Data: patent publication US20150190369A1, “QUERCETIN-3-GLUCOSIDE AND USES THEREOF” (priority 2012, published 2015)

Test system: PCSK9
Assay: Pulse-chase metabolic labeling and immunoprecipitation of PCSK9-related proteins in Huh7 cells
Format: cell-based, human
Conditions: Huh7 pre-incubated 24 h with 5 μM Q3G
Description: For metabolic labeling, Huh7 cells were seeded in a 12-well plate 8×10^5 cells/well in 1.5 ml/well of complete medium and incubated overnight. After a rinse with Dulbecco's PBS (PBS-D), cell monolayers were overlaid with 1.5 ml of DMEM/10% LPDS without or with 5 μM Q3G, and were incubated for 24 h. Fresh serum-free medium (SFM, 1.5 ml) was substituted, and cells were allowed to incubate for 30 min to reduce endogenous Met and Cys. The medium was removed and replaced with fresh SFM (0.75 ml/well) containing 300 μCi/ml^35S-Met/Cys, and cells were incubated at 37° C. for 20 min to label de novo biosynthesized proteins (pulse-labeling). The radioactive medium was replaced with DMEM/0.5% LPDS containing 10 mM non-radioactive Met/Cys and cells were incubated at 37° C. for 0, 15, 30, 60, 90 and 120 min (chase). Conditioned media and cell lysates were processed as described above.
Radioactive conditioned media or cell lysates (0.1 ml) were supplemented with […] of normal rabbit serum and 15 μl of a 50% (w/v) suspension of Protein A-agarose. After a 1-h incubation at 4° C. with rotational mixing, the samples were centrifuged at 3,000 g for 5 min at 4° C. Supernatants were supplemented 2 μl of rabbit anti-PCSK9 [35], and incubated as above. […] Specific radioactive protein bands were visualized and quantified on a Typhoon Phosphorimager (Molecular Dynamics). […]

For O=c1c(O[C@@H]2O[C@H](CO)[C@@H](O)[C@H](O)[C@H]2O)c(-c2ccc(O)c(O)c2)oc2cc(O)cc(O)c12 [Q3G, quercetin-3-O-β-D-glucoside], the “rate of intracellular proPCSK9 precursor processing versus untreated cells” value was “no obvious difference” and the “time to half-maximum accumulation of PCSK9 in culture media (percent of total PCSK9 proteins)” value (control cells 60 min) was 90 min.
